Data taken from patent publication US11357766B2, “Compositions and methods for treating cancer” (Texas Tech University System, priority 2017, dated 2022).

Legend:
[1] = system: pancreatic cancer cells; assay: Glycolysis, mitochondrial respiration and marker expression in pancreatic cancer cells; type: cell-based
[2] = system: behavioral activity of mice; assay: Mice behavioral analysis (Versamax); type: in vivo; settings: after 67 days of 10 mg/kg; mice bearing orthotopic pancreatic tumors
Experimental: In orthotopic experiment, behavioral activity was measured using Versamax (Accuscan instruments) after 67 days of oral administration of 10 mg/kg pimavanserin tartrate. The following were measured, in FIG. 6A total distance; FIG. 6B horizontal activity' FIG. 6C vertical activity; and FIG. 6D ambulatory activity. Values are plotted as mean±SEM.
Mice behavioral analysis. In orthotopic studies, the behavioral activity of mice was analyzed after chronic administration of pimavanserin tartrate for […]. The behavioral analysis was performed by Versamax (Accuscan Instruments Inc., Columbus, Ohio, USA) as previously described by the present inventors (7, 12).
Pimavanserin tartrate is an anti-psychotic drug used for the treatment of Parkinson disease. Owing to its action on the central nervous system, the behavioral activity of mice after long-term pimavanserin tartrate administration was assessed. The behavioral activity of mice was monitored after 67 days of 10 mg/kg pimavanserin treatment using Versamax (Accuscan Instruments Inc.).

[3] = system: PANC1 cells; assay: AnnexinV/FITC apoptosis assay; type: cell-based, human; settings: 48 hours
Experimental: (§1) Briefly, the following cells were treated at 0.2×10^6, in FIG. 2A AsPC1 cells, FIG. 2B BxPC3 cells, and in FIG. 2C PANC1 cells, which were plated and treated with 5, 7.5 and 10 μM pimavanserin tartrate for 48 hours. Percent apoptotic cells was evaluated by AnnexinV/FITC apoptosis assay using Accuri C6 flow cytometer. Studies were repeated independently 3 times.
(§2) AnnexinV/FITC apoptosis assay. The effects of pimavanserin in inducing apoptosis were assessed by AnnexinV/FITC apoptosis assay. The assay was performed by FITC AnnexinV apoptosis detection kit (BD biosciences, San Jose, Calif., USA). Briefly, 0.2×10^6 pancreatic cancer cells were plated in each well of 6-well plate and incubate overnight for the cells to attach. The cells were then treated with varying concentrations of pimavanserin tartrate. After 48 hours, cells were trypsinized and suspended in PBS. Cells were washed and re-suspended in 150 μl of annexin binding buffer. The cells were then stained with 4 μl AnnexinV FITC and 4 μl propidium iodide for 20 minutes in dark. Post incubation, the volume was adjusted to 350 μl by adding annexin binding buffer. Samples were then analyzed by flow cytometer (Accuri C6, AnnArbor, Mich., USA) as previously described by the present inventors (7).
(§3) Pimavanserin induces apoptosis in pancreatic cancer cells. In order to determine the mechanism of anti-proliferative effects of pimavanserin tartrate, apoptosis induction by pimavanserin tartrate treatment was determined in AsPC1, BxPC3 and PANC1 pancreatic cancer cells by AnnexinV/FITC assay using flow cytometer. […] Treatment of AsPC1 and BxPC3 cells with 7.5 μM pimavanserin caused 2-fold increase in apoptotic cells (FIG. 2A, 2B), whereas in PANC1 cells, a 4-fold increase in apoptotic cells was observed (FIG. 2C). […] Induction of apoptosis by pimavanserin treatment in AsPC1, BxPC3 and PANC1 cells was confirmed by cleavage of caspase 3 (FIGS. 3A-3C).

[4] = system: AsPC1 cells; assay: AnnexinV/FITC apoptosis assay; type: cell-based, human; settings: 7.5 μM, 48 hours
Experimental: as §1, §2, §3

[5] = system: BxPC3 cells; assay: AnnexinV/FITC apoptosis assay; type: cell-based, human; settings: 48 hours
Experimental: as §1, §2, §3

For `CC(C)COc1ccc(CNC(=O)N(Cc2ccc(F)cc2)C2CCN(C)CC2)cc1` [pimavanserin, N-(4-fluorophenylmethyl)-N-(1-methylpiperidin-4-yl)-N′-(4-(2-methylpropyloxy)phenylmethyl)carbamide], the “cleavage of caspase3 and PARP” value ([1]; Western blot) was “increasing”, the “expression of main metabolic markers Hexokinase-1, LDH-A and FOXM1” value ([1]; Western blot) was “inhibits” and the “glycolysis and mitochondrial respiration” value ([1]; pancreatic cancer cells) was “inhibits”. The “key oncogenic markers pAkt(S473), pSTAT3 (Y705 & S727), β-catenin, Cyclin D1, Mc1-1, HER2, EGFR, VEGFR2, c-Myc, CD44, Oct-4” value ([1]; pancreatic cancer cells) was “inhibiting”, the “behavioral activity parameters (total distance, horizontal, vertical and ambulatory activity) vs control” value [2] was “did not change” and the “increase in apoptotic cells” value ([3]; 7.5 μM) was 4 fold. For the same compound, the “increase in apoptotic cells” value ([3]; 10 μM) was 5 fold, the “increase in apoptotic cells” value [4] was 2 fold and the “increase in apoptotic cells” value ([5]; 7.5 μM) was 2 fold. For the same compound, the “increase in apoptotic cells” value ([5]; 10 μM) was 5 fold.
